Measured values as given in patent publication US11998532B1 (priority 2023, dated 2024).
In brackets after ≈: the same amount, converted by molar mass.

test system: multidrug-resistant (MDR) strains of Mycobacterium tuberculosis; experiment: microbe, parasite or virus in culture; type: cell-based; conditions: 192 h, read-out: MIC MDR-TB

| Structure (SMILES) | MIC [mg/L] |
| --- | --- |
| COc1ccc(Cl)cc1-n1ncc(-c2nnc(-c3ccc(Cl)cc3)o2)c1C [Compound 7a, 2-(1-(5-Chloro-2-methoxyphenyl)-5-methyl-1H-pyrazol-4-yl)-5-(4-chlorophenyl)-1,3,4-oxadiazole] | 16 (≈ 39.9 µM) |
| COc1ccc(Cl)cc1-n1ncc(-c2nnc(-c3ccc(F)cc3)o2)c1C [Compound 7b, 2-(1-(5-Chloro-2-methoxyphenyl)-5-methyl-1H-pyrazol-4-yl)-5-(4-fluorophenyl)-1,3,4-oxadiazole] | 8 (≈ 20.8 µM) |
| COc1ccc(Cl)cc1-n1ncc(-c2nnc(-c3ccc(C)c(Br)c3)o2)c1C [Compound 7c, 2-(3-Bromo-4-methylphenyl)-5-(1-(5-chloro-2-methoxyphenyl)-5-methyl-1H-pyrazol-4-yl)-1,3,4-oxadiazole] | 64 (≈ 139 µM) |
| COc1ccc(Cl)cc1-n1ncc(-c2nnc(-c3ccccc3)o2)c1C [Compound 7d, 2-(1-(5-Chloro-2-methoxyphenyl)-5-methyl-1H-pyrazol-4-yl)-5-phenyl-1,3,4-oxadiazole] | 32 (≈ 87.2 µM) |
| COc1ccc(Cl)cc1-n1ncc(-c2nnc(-c3ccc(Br)cc3)o2)c1C [Compound 7e, 2-(4-Bromophenyl)-5-(1-(5-chloro-2-methoxyphenyl)-5-methyl-1H-pyrazol-4-yl)-1,3,4-oxadiazole] | 16 (≈ 35.9 µM) |
| COc1ccc(Cl)cc1-n1ncc(-c2nnc(-c3ccc(Br)c(C)c3)o2)c1C [Compound 7f, 2-(4-Bromo-3-methylphenyl)-5-(1-(5-chloro-2-methoxyphenyl)-5-methyl-1H-pyrazol-4-yl)-1,3,4-oxadiazole] | 64 (≈ 139 µM) |
| COc1ccc(Cl)cc1-n1ncc(-c2nnc(-c3cccc(F)c3)o2)c1C [Compound 7g, 2-(1-(5-Chloro-2-methoxyphenyl)-5-methyl-1H-pyrazol-4-yl)-5-(3-fluorophenyl)-1,3,4-oxadiazole] | 32 (≈ 83.2 µM) |
| COc1ccc(Cl)cc1-n1ncc(-c2nnc(-c3cc(Cl)cc(Cl)c3)o2)c1C [Compound 7h, 2-(1-(5-Chloro-2-methoxyphenyl)-5-methyl-1H-pyrazol-4-yl)-5-(3,5-dichlorophenyl)-1,3,4-oxadiazole] | 16 (≈ 36.7 µM) |
| COc1ccc(Cl)cc1-n1ncc(-c2nnc(-c3ccc(Cl)c(Cl)c3)o2)c1C [Compound 7i, 2-(1-(5-Chloro-2-methoxyphenyl)-5-methyl-1H-pyrazol-4-yl)-5-(3,4-dichlorophenyl)-1,3,4-oxadiazole] | 32 (≈ 73.4 µM) |
| COc1ccc(Cl)cc1-n1ncc(-c2nnc(-c3ccc(C)c([N+](=O)[O-])c3)o2)c1C [Compound 7j, 2-(1-(5-Chloro-2-methoxyphenyl)-5-methyl-1H-pyrazol-4-yl)-5-(4-methyl-3-nitrophenyl)-1,3,4-oxadiazole] | 64 (≈ 150 µM) |
